The subject of one data set is miR-208a, Myh6, Myh7. As to the kind of experiment: Cardiac tissue markers by Taqman RT-PCR, 4% NaCl diet (Example 2). The note with it: 25 mg/kg sc every 2 weeks; for Myh6 expression in cardiac tissue: 25 mg/kg. It is filed as in vivo, rat. As for the experimental part: The flowing experimental groups were tested:
Following catheter implant surgery, high-salt diet was initiated. […] Animals were sacrificed 8 weeks after the initial injection.
Tissue RNA was isolated using standard Trizol RNA isolation.
For orientation: Real-time PCR tracks product formation cycle by cycle.

Another data set has as its system Dahl salt-sensitive rats. The data set is described as follows: Dahl salt-sensitive rat model, 6% NaCl diet: body weight and survival (Example 3). It is filed as in vivo.
In another data set the test system is plasma miRNAs. As to the kind of experiment: Real-time PCR of plasma miRNAs, 6% NaCl diet (Example 3). It counts as in vivo, rat. As for the experimental part: (§1) One week following the initiation of the 6.0% NaCl diet, rats were dosed subcutaneously (sc) with saline or oligonucleotides (M−10101, 5′-CTTTTTGCTCGTCTTA-3′ (SEQ ID NO: 12) or M-10591, 5′-TCCTAGAAAGAGTAGA-3′ (SEQ ID NO:13)) at 25 mg/kg every 2 weeks. Captopril or water were dosed daily by oral gavage. Echocardiography was performed every 2 weeks starting one week post […] dosing. The Captopril dose for rat was selected to match the standard human dose in man.
Quantitative real-time PCR analysis from plasma. RNA from plasma samples was isolated using Trizol LS Reagent (Invitrogen), using the manufacturer's protocol. Prior to RNA isolation, […] of two different synthetic C. elegans miRNA sequences were added to serve as internal controls for normalization of target miRNAs. The C. elegans sequences used were cel-miR-2 ([…], SEQ ID NO:5), and cel-lin-4 ([…]; SEQ ID NO:6) (Dharmacon). The final RNA pellet was re-suspended in a final volume equal to the initial plasma volume and 5 μl was used for subsequent RT-PCR reactions, as described above.

Data set [1] has as its system miR-208a, miR-499, miR-208b, Myh6, Myh7b, Myh7, Dynlt1, Vcpip, Tegt. As to the kind of experiment: Cardiac tissue real-time PCR, 6% NaCl diet (Example 3). It is filed as in vivo, rat. The note with it: M-10101 25 mg/kg sc, Captopril po daily. As for the experimental part: as §1
For in vivo real-time PCR analysis, RNA was extracted from cardiac tissue using Trizol (Invitrogen) after which two μg RNA from each tissue sample was used to generate cDNA using Super Script II reverse transcriptase per manufacturer's specifications (Invitrogen). To detect the level of miR-208 RT-PCR was performed using the Taqman MicroRNA assay (Applied Biosystems, ABI) according the manufacturer's recommendations, using 10-100 ng of total RNA. The expression of a subset of genes was analyzed by quantitative real time PCR using Taqman probes purchased from AB.

The text below walks through data of patent US20140024700A1, “BLOOD-BORNE MIRNAS AS SURROGATE MARKERS OF DRUG EFFICACY FOR CARDIAC CONDITIONS” (miRagen Therapeutics, Inc., priority 2010, published 2014).

In the case of “M-10591: control oligonucleotide targeting miR-67 from C. elegans; 5′-TCCTAGAAAGAGTAGA-3′ (SEQ ID NO:13) (LNA-modified control oligonucleotide, pattern not given here) [reference compound]”, in the data set on miR-208a, Myh6, Myh7, the “Myh7 expression in cardiac tissue” value was “significantly increased” and the “Myh6 expression in cardiac tissue” value is reported as “significant decrease”. The “Myh6 expression in cardiac tissue” value in the data set with miR-208a, Myh6, Myh7 (listed as control oligonucleotide) was “no effect”. Moreover, in the data set on Dahl salt-sensitive rats (oligonucleotide 25 mg/kg sc every 2 weeks), the Body weight entry is given as “no apparent effect on weight gain”.

With `C[C@H](CS)C(=O)N1CCC[C@H]1C(=O)O` [Captopril, reference compound], in the data set with plasma miRNAs, the “Plasma miR-21” value was “reduced specifically”; the “Plasma miR-150” value is listed as “reduced specifically”; the “Plasma miR-223” value is reported as “significantly reduced”; the “Plasma miR-423-5p, miR-106b, miR-16, miR-92a, miR-378, miR-210, miR-378*, miR-20b and miR-93” value was “decreased”. In the data set with Dahl salt-sensitive rats (1.5 mg/kg Captopril po daily), the “Survival (Kaplan-Meier)” value is “pronounced decrease in survival”. The Body weight result in the data set with Dahl salt-sensitive rats (15 mg/kg Captopril po daily) is reported as “slightly reduced the high-salt (HS) diet-induced decrease in body weight”. Further, in data set [1], the “Myh7b levels in the heart” value is reported as “no apparent effect”, the “αMHC (Myh6) in the heart (reduced by HS diet)” value is “normalized” and the “βMHC (Myh7) expression (increase induced by HS diet)” value is “reduced the increase”.
